According to patent EP0213108A2, “Pharmaceutical preparation containing an antihypotonic as the active agent” (Burghart, Kurt, Dr., priority 1985, dated 1987):
Counter-ions that a name gives are not always drawn.

Assay: Pulse and systolic/diastolic blood pressure over time after sublingual aerosol or oral administration
Assay type: in vivo
Conditions: hydrochloride, oral
Procedure: Die raschere Wirksamkeit der erfindungsgemäßen pharmazeutischen Zubereitung relativ zu einer konventionellen Zubereitung wird nachfolgen an Hand eine Ausführungsbeispieles näher erläutert.
In einer alkoholischen Lösung wurden hiebei unter Verwendung von Trichlorfluorkohlenwasserstoff als Treibgas 2,5 mg 1-(3'--Hydroxyphenyl)-2-aminoäthanol als Aerosol sublingual verabreicht. In der nachfolgenden Tabelle I sind unter A die Vergleichswerte für den systolischen und den diastolischen Druck über die Zeit bei Versprühen eines Placebos, unter B die Werte für den systolischen und den diastolischen Druck über die Zeit bei Verabreichung von 2,5 mg Base als Aerosol und unter C die systolischen und diastolischen Druckwerte bei Verabreichung der gleichen Wirksubstanz als Hydrochlorid und oral über die Zeit aufgetragen, wobei mit dem Zeitpunkt 0 Referenzwerte vorangestellt sind. Aus Tabelle B ist hiebei der rasche diastolische Druckanstieg bei sublingualer Verabreichung als Aerosol ersichtlich, wohingegen aus Tabelle C eine Steigerung des diastolischen Drucks frühestens nach Ablauf von 15 min entnommen werden kann.

Compound: NCC(O)c1cccc(O)c1 (stereo not shown) [C, 1-(3'-Hydroxyphenyl)-2-aminoäthanol-hydrochlorid]
- Steigerung des diastolischen Drucks (time of onset): ≥ 15 min
- Diastole (1'): 8,53 kPa
- Puls (1'): 64 min⁻¹
- Systole (1'): 14,40 kPa
- Diastole (3'): 8,67 kPa
- Puls (3'): 66 min⁻¹
- Systole (3'): 14,00 kPa
- Diastole (5'): 8,53 kPa
- Puls (5'): 71 min⁻¹
- Systole (5'): 14,27 kPa
- Diastole (7'): 8,53 kPa
- Puls (7'): 68 min⁻¹
- Systole (7'): 14,40 kPa
- Diastole (10'): 8,80 kPa
- Puls (10'): 66 min⁻¹
- Systole (10'): 14,67 kPa
- Diastole (12'): 8,80 kPa
- Puls (12'): 68 min⁻¹
- Systole (12'): 13,87 kPa
- Diastole (15'): 8,67 kPa
- Puls (15'): 77 min⁻¹
- Systole (15'): 14,40 kPa
- Diastole (20'): 9,33 kPa
- Puls (20'): 52 min⁻¹
- Systole (20'): 14,93 kPa
- Diastole (25'): 8,80 kPa
- Puls (25'): 67 min⁻¹
- Systole (25'): 13,73 kPa
- Diastole (30'): 9,60 kPa
- Puls (30'): 69 min⁻¹
- Systole (30'): 14,27 kPa
